Paper PMC10669220, “In Vitro α-Glucosidase and α-Amylase Inhibition, Cytotoxicity and Free Radical Scavenging Profiling of the 6-Halogeno and Mixed 6,8-Dihalogenated 2-Aryl-4-methyl-1,2-dihydroquinazoline 3-Oxides” (Antioxidants, 2023)

Key:
human α-amylase = biological target: T1, human α-amylase (Homo sapiens, UniProt P04746); test: α-amylase inhibitor screening kit assay; format: biochemical; conditions: mean ± SD, triplicate; tested at 1, 5, 10, 25, 50 µM
T1 construct: purchased Abcam ab283391
T1 sequence (P04746 16-511): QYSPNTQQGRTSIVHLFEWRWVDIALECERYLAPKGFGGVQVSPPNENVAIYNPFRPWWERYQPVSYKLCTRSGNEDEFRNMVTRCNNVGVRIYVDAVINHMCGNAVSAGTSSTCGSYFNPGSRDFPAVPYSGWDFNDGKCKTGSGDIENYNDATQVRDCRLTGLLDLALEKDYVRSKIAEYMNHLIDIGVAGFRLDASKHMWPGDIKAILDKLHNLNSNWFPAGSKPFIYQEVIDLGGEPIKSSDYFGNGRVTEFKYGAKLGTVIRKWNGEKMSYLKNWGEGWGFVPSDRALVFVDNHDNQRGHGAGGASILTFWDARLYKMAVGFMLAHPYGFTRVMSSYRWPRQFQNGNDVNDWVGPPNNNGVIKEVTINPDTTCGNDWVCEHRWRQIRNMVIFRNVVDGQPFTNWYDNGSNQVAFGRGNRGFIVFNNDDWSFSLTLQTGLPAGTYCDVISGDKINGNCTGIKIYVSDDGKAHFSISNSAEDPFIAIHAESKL
Experimental: The α-amylase assay was performed in triplicate, using a 96-well plate following the procedure recommended by the manufacturer as outlined in the α-amylase inhibitor Screening Kit (Catalogue No. ab283391; Abcam). […] The average values obtained from the absorbance readings were used to determine the IC50 and standard deviation values in GraphPad prism from nonlinear regression dose–response curves.

[1] = system: breast cancer (MCF-7) cell line; test: MTT cytotoxicity assay, MCF-7; conditions: for Cell viability percentage, MCF-7: Table S2; for IC50: Homo sapiens, MCF7, read-out: IC50 MCF-7
Experimental: (§1) Cells were cultured in sterile Dulbecco’s Minimal Essential Medium (DMEM, Gibco) supplemented with 10% fetal bovine serum (FBS) and 1% penicillin-streptomycin solution. […] Cell counting was carried out using a handheld automated cell counter (Scapter 3.0™, Merck, Burlington, MA, USA) and seeded (1 × 10^4 cells/well) into a 96-well plate. After 24 h, the cells were treated with different concentrations (1, 5, 10, 25 and 50 µM) of the test compounds and reference standards prepared in DMEM. The MTT solution (20 μL) prepared in PBS (5 mg/mL) was added to all the wells, and the plates were incubated for 4 h, followed by 1 h incubation with 100 µL of dimethyl sulfoxide (DMSO) to dissolve the formazan crystals. Untreated cells and 5% DMSO were included in the experiment as negative controls. All experiments were performed in triplicate. The plates were read at 570 nm at a reference wavelength of 630 nm using an ELISA plate reader (Varioskan Flash, ThermoFisher Scientific, Vantaa, Finland). The percentage of cell viability was calculated using the following formula, Cell viability %=At/Ab×100 where At represents the absorbance value of test compound and Ab the absorbance value of the blank. […] The data were expressed as means ± SD.

[2] = biological target: T2, α-Glucosidase type 1 from baker's yeast (Saccharomyces cerevisiae, UniProt P53341); test: biochemical; conditions: IC50 α-Glucosidase, mean ± SD, triplicate; tested at 1, 5, 10, 25, 50 µM
T2 construct: purchased Sigma Aldrich (Pty) Ltd. G5003
Experimental: The assay was conducted in triplicate following a method described in our previous study. […] After pre-incubation, 17 µL of 2 mM PNP-G was added. The absorbances were recorded in a 96-well microplate at 400 nm using an Elisa plate reader (Varioskan Flash, ThermoFischer Scientific, Vantaa, Finland). The average values obtained from the readings were used to determine the IC50 and standard deviation values using a GraphPad Prism software (Version 8, GraphPad Software Inc., San Diego, CA, USA). The average values obtained from the absorbance readings were used to determine the IC50 and standard deviation values in GraphPad prism from nonlinear regression dose–response curves.

[3] = system: NO generated from nitric oxide synthase (NOS); test: Inhibitory activity against NO generated from NOS (EnzyChrom kit); format: biochemical; conditions: mean ± SD, 1-50 µM
Experimental: A nitric oxide synthase (NOS) assay was performed following the procedure recommended by the manufacturer as outlined in the screening kit (Catalogue No. EINO-100; EnzyChrom). Various concentrations (1, 5, 10, 25 and 50 µM) of the compounds 3a, 3c, 3f, 3i, 3l, 3n and 3p and the reference standard, ascorbic acid, were prepared. The enzyme solution (12.5 U/mL NOS, 10 µL), assay buffer (25 µL) and test samples (5 µL) were incubated at room temperature for 15 min. After pre-incubation, 10 µL of reaction mix was added and incubated at 37 °C for 60 min. A 200 µL quantity of NO detection reagent was added, the detection reaction was run at 37 °C for 60 min, and absorbance was determined at a wavelength of 540 nm using an Elisa plate reader (Varioskan Flash, ThermoFisher Scientific, Vantaa, Finland). The average of three readings was used to calculate the NOS percentage inhibition using the following formula: % Inhibition=1−ΔOD Test Compd/ΔOD No Inhibitor ×100%
The IC50 values and standard deviation values were determined from nonlinear regression dose–response curve and compared with the results in GraphPad prism.

[4] = DPPH radical scavenging assay; conditions: mean ± SD; 45 min in the dark; 512 nm
Experimental: The DPPH radical scavenging assay was conducted following the procedure described in our previous study. The test compounds and ascorbic acid at various concentrations (ranging from 0 µM to 50 µM) in DMSO were mixed with a solution of DPPH (0.20 mM) in methanol and incubated in the dark for 45 min. Five absorbance readings were recorded at 512 nm using an Elisa plate reader (Varioskan Flash, ThermoFisher Scientific, Vantaa, Finland). The experiment was carried out in triplicate, and averaged values from the absorbance readings were used to determine the IC50 and standard deviation values in GraphPad prism from nonlinear regression dose–response curves.

[5] = NO free radical scavenging assay (sodium nitroprusside/Griess); conditions: mean ± SD; sodium nitroprusside, Griess reagent, 550 nm
Experimental: The assay was conducted following the method described in our previous study. A mixture of 10 mM sodium nitroprusside (20 µL), phosphate buffer (5 µL) and the test compound (5 µL) were incubated at 25 °C in a 96-well plate for 2.5 h. After incubation, 20 µL of Griess reagent (1.00 g of sulfanilic acid + 0.10 g naphthylethylene diamine dihydrochloride) was added to the previous mixture and allowed to stand for 30 min. […] Each experiment was performed in triplicate, and the average was taken. The average obtained from the absorbance readings was used to calculate the IC50 values in GraphPad prism from nonlinear regression dose–response curves.

[6] = MTT cytotoxicity assay, HEK293-T; conditions: human, HEK293-T cells
[7] = system: human embryonic kidney (HEK293-T) cell line; test: MTT cytotoxicity assay, HEK293-T; conditions: Homo sapiens, HEK-293T, read-out: IC50 Hek293-T
[8] = biological target: superoxide dismutase (SOD); test: Superoxide dismutase (SOD) inhibitory assay (SOD assay kit-WST); format: biochemical; conditions: duplicate; 1-50 µM; 25 °C, 30 min; read-out: IC50 SOD inhibition
Experimental: The antioxidant activity of the compounds 3a, 3c, 3f, 3i, 3l, 3n and 3p against superoxide radicals was assessed via enzymatic assay in vitro using the SOD assay kit-WST according to the manufacturer’s instructions (Sigma-Aldrich®). The reaction mixtures in the SOD kit were combined with 20 μL of working solution of the samples in a 96-well plate. Plates were gently shaken and then incubated at 25 °C for 30 min. The reference positive control, diphenyleneiodonium (DPI), and the compounds were tested at 01, 5, 10, 25 and 50 µM in duplicates. The inhibition activity of SOD on the reaction of […] generated the superoxide with a tetrazolium salt, which was then determined by measuring the absorbance of the mixtures at a wavelength of 450 nm using an Elisa plate reader (Varioskan Flash, ThermoFisher Scientific, Vantaa, Finland). The SOD activity values obtained used to calculate the percentage of inhibition. % SOD activity=ODx− ODy/ODx ×100% where ODx is the absorbance of the blank (untreated SOD) and ODy is the absorbance of the sample (treated SOD). All tests were performed in duplicate.

[9] = system: lung cancer (A549) cell line; test: MTT cytotoxicity assay, A549; conditions: for Cell viability percentage, A549: Table S3; for IC50: Homo sapiens, A549, read-out: IC50 A549
Experimental: as §1

T2 sequence (P53341 whole entry): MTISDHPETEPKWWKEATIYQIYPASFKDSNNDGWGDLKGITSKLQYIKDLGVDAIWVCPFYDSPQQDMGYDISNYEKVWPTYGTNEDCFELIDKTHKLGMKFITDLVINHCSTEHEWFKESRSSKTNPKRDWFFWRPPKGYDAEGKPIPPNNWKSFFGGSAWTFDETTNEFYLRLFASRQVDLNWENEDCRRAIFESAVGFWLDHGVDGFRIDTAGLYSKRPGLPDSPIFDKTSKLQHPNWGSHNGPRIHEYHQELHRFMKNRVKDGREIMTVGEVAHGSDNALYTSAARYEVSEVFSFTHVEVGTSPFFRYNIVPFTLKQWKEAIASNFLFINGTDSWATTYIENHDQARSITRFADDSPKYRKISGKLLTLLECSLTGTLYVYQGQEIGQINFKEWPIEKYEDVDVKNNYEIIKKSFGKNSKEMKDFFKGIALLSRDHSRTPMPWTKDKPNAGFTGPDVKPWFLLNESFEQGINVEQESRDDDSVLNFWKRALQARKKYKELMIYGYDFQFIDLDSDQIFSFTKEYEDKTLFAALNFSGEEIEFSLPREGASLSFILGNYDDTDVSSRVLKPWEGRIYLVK

Row | Structure (SMILES) | IC50 (human α-amylase) [µM] | Cell viability percentage, MCF-7 ([1]; Conc. 1 (µM per method)) | Cell viability percentage, MCF-7 ([1]; Conc. 5 (µM per method)) | Cell viability percentage, MCF-7 ([1]; Conc. 10 (µM per method)) | Cell viability percentage, MCF-7 ([1]; Conc. 25 (µM per method)) | Cell viability percentage, MCF-7 ([1]; Conc. 50 (µM per method)) | IC50 [1] [µM] | IC50 [2] [µM] | IC50 [3] [µM] | IC50 [4] [µM] | IC50 [5] [µM] | viability at 1 µM [6] [%] | viability at 5 µM [6] [%] | viability at 10 µM [6] [%] | viability at 25 µM [6] [%] | viability at 50 µM [6] [%] | IC50 [7] [µM] | melting point [°C] | Cell viability percentage, A549 ([9]; Conc. 1 (µM per method)) | IC50 [9] [µM] | other results
1 | CC1=[N+]([O-])C(c2ccc(F)cc2)Nc2c(Br)cc(I)cc21 (centres unmarked) [Compound 3n] | 4.71 ± 0.01 | 34,8969% | 33,2335% | 31,9528% | 31,7365% | 30,1896% | 14.79 ± 0.1 | 43.23 ± 0.05 | 3.5 ± 0.01 | 6.84 ± 0.009 | 0.88 ± 0.004 | 75.1 | 70.1 | 54.1 | 39.6 | 20.5 | 32.42 ± 0.06 | 125 to 127 | 79,9753% | 17.22 ± 0.07 | IC50 [8]: 6.2 ± 0.12 µM; Cell viability percentage, A549 ([9]; Conc. 5 (µM per method)): 73,2703%; Cell viability percentage, A549 ([9]; Conc. 10 (µM per method)): 62,0205%; Cell viability percentage, A549 ([9]; Conc. 25 (µM per method)): 43,4807%; Cell viability percentage, A549 ([9]; Conc. 50 (µM per method)): 30,3521%
2 | CC1=[N+]([O-])C(c2ccccc2)Nc2ccc(Br)cc21 (centres unmarked) [Compound 3a] | 5.33 ± 0.01 | 26,2641% | 26,1144% | 23,187% | 22,3387% | 19,6607% | 10.83 ± 0.09 | 1.08 ± 0.02 | 5.24 ± 0.002 | 4.74 ± 0.027 | 27.34 ± 0.04 | 69.4 | 63.4 | 57.8 | 55.1 | 19 | 40.18 ± 0.02 | 158 to 160 | 66,8354% | 15.84 ± 0.07 | IC50 [8]: 15 ± 10 µM; Cell viability percentage, A549 ([9]; Conc. 5 (µM per method)): 57,3068%; Cell viability percentage, A549 ([9]; Conc. 10 (µM per method)): 54,0443%; Cell viability percentage, A549 ([9]; Conc. 25 (µM per method)): 41,1182%; Cell viability percentage, A549 ([9]; Conc. 50 (µM per method)): 30,5771%
3 | COc1ccc(C2Nc3c(Br)cc(I)cc3C(C)=[N+]2[O-])cc1 (centres unmarked) [Compound 3p] | 73.66 ± 0.02 | 72,4624% | 70,8112% | 59,2339% | 43,212% | 27,8817% | 13.47 ± 0.06 | 0.78 ± 0.05 | 15.51 ± 0.009 | 60.03 ± 0.014 | 5.46 ± 0.004 | 83.4 | 81.4 | 75.8 | 74.7 | 18.4 | 59.02 ± 0.02 | 173 to 174 | 45,0433% | 12.24 ± 0.02 | IC50 [8]: 8.3 ± 0.04 µM; Cell viability percentage, A549 ([9]; Conc. 5 (µM per method)): 44,7771%; Cell viability percentage, A549 ([9]; Conc. 10 (µM per method)): 43,6627%; Cell viability percentage, A549 ([9]; Conc. 25 (µM per method)): 42,5649%; Cell viability percentage, A549 ([9]; Conc. 50 (µM per method)): 39,3879%
4 | O=C1O[C@H]([C@@H](O)CO)C(O)=C1O [Ascorbic acid, ascorbic acid, reference compound] |  |  |  |  |  |  |  |  | 0.999 ± 0.006 | 5.02 ± 0.009 | 5.39 ± 0.005 |  |  |  |  |  |  |  |  |  | 
5 | CC1=[N+]([O-])C(c2ccc(Cl)cc2)Nc2c(Br)cc(I)cc21 (centres unmarked) [Compound 3o] | 49.18 ± 0.01 | 46,2908% | 41,6001% | 39,6041% | 38,7891% | 23,0428% | 16.5 ± 0.01 | 7.07 ± 0.04 |  | 88.45 ± 0.009 | 23.25 ± 0.002 | 45.2 | 44.6 | 44.4 | 44.2 | 37.7 | 58.98 ± 0.17 | 140 to 142 |  | 20 ± 0.05 | 
6 | CC1=[N+]([O-])C(c2ccccc2)Nc2c(Br)cc(I)cc21 (centres unmarked) [Compound 3m] | 16.73 ± 0.01 | 25,998% | 24,1517% | 20,9415% | 20,6088% | 17,6314% | 15.34 ± 0.07 | 9.14 ± 0.03 |  | 8.88 ± 0.011 | 55.39 ± 0.002 | 81.2 | 75 | 51.1 | 42 | 19.1 | 27.97 ± 0.08 | 180 to 181 | 78,1978% | 16.34 ± 0.06 | Cell viability percentage, A549 ([9]; Conc. 5 (µM per method)): 68,6691%; Cell viability percentage, A549 ([9]; Conc. 10 (µM per method)): 61,413%; Cell viability percentage, A549 ([9]; Conc. 25 (µM per method)): 42,2995%; Cell viability percentage, A549 ([9]; Conc. 50 (µM per method)): 30,0709%
